From patent US9060959B2, “Synergistic compositions and method for potentiating anti-oxidative activity” (The State of Israel, Ministry of Agriculture & Rural …, priority 2003, dated 2015)

Experiments:
[1] = in vivo; cited from earlier work
[2] = tested on: β-carotene oxidation catalyzed by metmyoglobin; assay: β-carotene co-oxidation in simulated gastric fluid; assay type: biochemical
Experimental: Here B carotene co-oxidation was determined in order to identify free radical damage during lipid peroxidation in the same model system of acid gastric fluid (FIG. 2).
However, the addition of catechin to the same system containing metmyoglobin inhibited β-carotene oxidation by 100% (FIG. 2).

[3] = tested on: peroxides / lipid peroxidation catalyzed by metmyoglobin; assay: Simulated gastric system comprising polyphenol and metmyoglobin catalyst, with antacid; assay type: biochemical; settings: low acidic conditions obtained by addition of antacid, metmyoglobin catalyst
Excerpt: An unexpected phenomenon established by the inventors of the present invention is that that in the stomach, generation or breakdown of peroxides by endogenous catalysts or catalysts obtained from food products, or components thereof, and food supplements can be selected by polyphenols and antacids. In other words, the appropriate combination of polyphenol and antacids can invert the catalyzed reaction from pro-oxidation to antioxidation consequently attenuating lipid peroxidation in the stomach.
The terms “a gastric-simulating system” or “simulated gastric system” are interchangeably used herein to describe an experimental setup comprising components which simulate, in-vitro, the environment of the GI tracts or components thereto. In a particular example, a gastric simulating system may comprise the following components: HCl 0.1N and pepsin (Kanner et al. ibid).
Hydroperoxides measurement in linoleic acid emulsions: Catechin was dissolved in 10% ethanol in water and the reaction tubes were incubated in triplicate in a shaking bath at 37° C. for 180 min. Samples of 25 or 50 μl were taken from the reaction tubes during the incubation and added to 475 or 950 μl, respectively, of FOX2 reagent. Before each experiment, old stock solution of linoleic acid was mixed with fresh solution in order to maintain an accurately consistent initial level of hydroperoxides.

| Compound | raises pH of the stomach to [1] | inhibition of β-carotene oxidation ([2]; acid gastric fluid model system containing metmyoglobin) | β-carotene co-oxidation ([2]; low acidic conditions obtained by addition of antacid, metmyoglobin catalyst) | lipid peroxidation [3] | peroxide generation [3] |
| --- | --- | --- | --- | --- | --- |
| [Mg+2].[OH-].[OH-] [Magnesium hydroxide] | 9 pH |  |  |  |  |
| O=C([O-])[O-].[Ca+2] [Calcium carbonate] | ≤ 7.0 pH |  |  |  |  |
| catechin |  | 100% | completely prevented | completely prevented | zero |
